Measurements taken from patent US20090209633A1, “Treatment of Pain With Resiniferatoxin and Related Analogs” (priority 2006, published 2009).
“Also recorded” adds a separate entry of the source. Like-named read-outs stand apart in the source and are kept apart here.

Experiments:
[1] = target: TRPV1 (Rattus norvegicus, UniProt O35433); settings: Caterina et al. 1997, cited from earlier work
[2] = test system: TRPV1; type: in vivo
Source text: Low concentrations of RTX (0.19 micrograms/kg) were introduced intrathecally.
FIG. 14 provides photographs of TRPV1 levels in paw skin with and without intrathecal RTX administration.

[3] = target: T1, vanilloid receptors (Rattus norvegicus, UniProt O35433); settings: Acs et al. 1995; cited from earlier work
[4] = target: T2, native TRPV1 (Rattus norvegicus, UniProt O35433); assay: Single-channel currents in cell-attached patches from DRG neurons; type: cell-based; parameters: Open time τ4 / Closed time τ1 / Closed time τ2 / Closed time τ3 / Closed time τ4: unit not given here; settings: for single-channel conductance / single-channel current amplitude / Po (single-channel open probability): cell-attached; for single-channel conductance / single-channel current amplitude: RTX, capsaicin 100 nM; for Closed time τ1 / Closed time τ2 / Closed time τ3 / Open time τ1 / Open time τ2 / Open time τ3 / Po (single-channel open probability): RTX 0.1 nM; for Closed time τ1 / Closed time τ2 / Closed time τ3 / Open time τ1 / Open time τ2 / Open time τ3 / Po (single-channel open probability) / Closed time τ4 / Open time τ4: CAP 100 nM; for slope conductance, inward limb / negative potentials: between 0 and −100 mV
T2 construct: RTX-induced membrane currents on native TRPV1 in embryonic DRG neurons grown in culture; endogenous in cells; host or cells: primary rat E18 DRG neurons
Source text: For single-channel recording in cell-attached patches from DRG neurons, the bath solution contained (mM): potassium gluconate 140, KCl 2.5, MgCl2 1, Hepes 5 and EGTA 1.5; pH adjusted to 7.35 with NaOH. The patch pipettes were made from glass capillaries (Drummond, Microcaps), coated with Sylgard (Dow Corning, Midland, Mich., USA). For cell-attached patches, the patch pipettes were filled with a solution that contained (mM): sodium gluconate 140, NaCl 10, MgCl2 1, Hepes 5 and EGTA 1.5; pH adjusted to 7.35 with NaOH. While recording from cell-attached patches, in order to avoid differences in the driving force because of the differences in the membrane potential, the external NaCl was replaced by an equal amount of KCl in order to nullify the membrane potential. For outside-out patches, the pipette solution contained (mM): sodium gluconate 90, NaCl 10, BAPTA 10, Hepes 10, K2ATP2 and GTP 0.25; pH adjusted to 7.35 with NaOH. The bath solution contained (mM): sodium gluconate 100, KCl 2.5, MgCl2 1, Hepes 5 and EGTA 1.5; pH adjusted to 7.35 with NaOH. All the experiments were performed at room temperature (21-23° C.). Agar-bridge electrodes were used to avoid changes in junction potential. The currents were recorded using a WPC 100 (Warner Instruments) or Axopatch 2B (Axon Instruments, Union City, Calif., USA) patch-clamp amplifier. Data were filtered at 10 kHz (Axopatch 2B), digitized (VR-10B, Instrutech Corp.), and stored on videotapes. For the analysis of amplitude and open probability (Po), the data were filtered at 2.5 kHz (−3 db frequency with an 8-pole low-pass Bessel filter, Warner Instruments) and digitized at 5 kHz. For dwell-time analysis, the data were filtered at 10 kHz and digitized at 50 kHz.
Single-channel analysis. Single-channel current amplitude and Po were estimated from all-point current amplitude histograms (Channel 2 software kindly provided by Michael Smith, Australian National University, Can berra, Australia) and fitted to Gaussian densities (Origin, OriginLab Corp., Northampton, Mass., USA). For current-voltage relationships, the amplitudes were determined by fitting a Gaussian curve to an all-point histogram. Po was determined using unedited segments of data, which were typically 1-5 min long. For multiple channel patches, the mean Po was measured as nPo, where n is the number of channels in the patch. Chord conductance was measured at +60 or −60 mV. […]
Single-channel currents were idealized using a modified Viterbi algorithm (QUB software, www.qub.buffalo.edu). Dwell-time distributions were fitted with mixtures of exponential densities using a method of maximum likelihood. Additional exponential components were incorporated only if the maximum log likelihood increased more than 2 log likelihood units. (Chung et al. 1990; Qin et al. 1996; Premkumar et al. 1997.) A dead time (Td) of 50 μs was imposed retrospectively, in that, events shorter than 50 μs were considered to be a part of the adjoining sojourns.
Single-channel conductance. To further evaluate the properties of TRPV1 activation by RTX, we recorded single-channel currents from cell-attached and excised patches from DRG neurons and oocytes heterologously expressing TRPV1. All recordings were carried out in the absence of extracellular calcium to avoid tachyphylaxis and desensitization of channel activity. (Docherty et al. 1996; Caterina et al. 1997; Koplas et al. 1997.) Single-channel current activity in cell-attached patches from DRG neurons were recorded at −60 and +60 mV, as shown in FIG. 3.

[5] = target: T1, vanilloid receptors; settings: Acs et al. 1995; read-out: Kd, ability to induce Ca2+ uptake; cited from earlier work
[6] = test system: TRPV1-containing central terminals; assay: Paw withdrawal latency and nocifensive behavior after intrathecal RTX administration; type: in vivo
Source text: FIG. 14 provides photographs of TRPV1 levels in paw skin with and without intrathecal RTX administration. […] However, because PWL is a test for acute pain sensation, it is inappropriate for studying TRPV1 involvement, because TRPV1 mediates inflammatory pain.

[7] = target: T2, native TRPV1; settings: capsaicin 1 μM, cell-attached, Premkumar et al. 2002, cited from earlier work
[8] = RTX 0.19 micrograms/kg intrathecal

T2 sequence (O35433 whole entry): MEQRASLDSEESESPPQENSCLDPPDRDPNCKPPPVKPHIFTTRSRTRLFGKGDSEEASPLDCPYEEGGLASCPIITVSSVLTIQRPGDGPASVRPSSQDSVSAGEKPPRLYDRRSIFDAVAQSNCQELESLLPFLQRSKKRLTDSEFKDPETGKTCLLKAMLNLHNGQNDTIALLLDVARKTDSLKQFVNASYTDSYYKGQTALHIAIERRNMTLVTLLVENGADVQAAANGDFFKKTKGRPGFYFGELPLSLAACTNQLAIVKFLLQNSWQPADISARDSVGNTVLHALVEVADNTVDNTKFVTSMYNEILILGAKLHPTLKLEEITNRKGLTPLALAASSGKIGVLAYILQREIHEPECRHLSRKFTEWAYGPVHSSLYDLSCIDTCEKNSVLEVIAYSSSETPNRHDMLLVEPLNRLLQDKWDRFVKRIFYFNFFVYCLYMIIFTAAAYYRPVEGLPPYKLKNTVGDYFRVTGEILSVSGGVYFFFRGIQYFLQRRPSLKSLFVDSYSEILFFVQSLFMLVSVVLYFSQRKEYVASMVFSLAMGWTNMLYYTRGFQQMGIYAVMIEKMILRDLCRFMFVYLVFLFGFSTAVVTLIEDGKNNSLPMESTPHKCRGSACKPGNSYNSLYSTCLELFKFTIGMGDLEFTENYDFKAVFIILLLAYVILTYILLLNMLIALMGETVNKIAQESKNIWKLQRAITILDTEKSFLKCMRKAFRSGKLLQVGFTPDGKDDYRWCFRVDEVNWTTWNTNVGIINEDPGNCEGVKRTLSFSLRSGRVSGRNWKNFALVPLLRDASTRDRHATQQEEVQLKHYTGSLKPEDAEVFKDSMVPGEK
Chain of TRPV1 (Rattus norvegicus, UniProt O35433) (O35433 whole entry): as above
T1 sequence (O35433 whole entry): as above

SMILES: C=C(C)[C@]12C[C@@H](C)[C@@]34O[C@](Cc5ccccc5)(O[C@@H]1[C@@H]3C=C(COC(=O)Cc1ccc(O)c(OC)c1)C[C@]1(O)C(=O)C(C)=C[C@@H]41)O2 [RTX, resiniferatoxin]
- fold more potent than capsaicin to activate TRPV1 current [1]: 20 fold
- EC50 ([1]; read-out: EC50 to activate TRPV1 current): 0.039 µM
- TRPV1 levels in DRG [2, 8]: maintenance; also recorded: remained constant
- TRPV1 levels in spinal cord dorsal horn (DH) [2, 8]: reduction; also recorded: significantly reduced
- effect on cell body or peripheral terminals (paw skin TRPV1) ([2]; RTX intrathecal): without affecting the cell body or peripheral terminals
- fold more potent for binding as compared to Ca2+ uptake [3]: 25 fold
- mean open time ([4]; +60 mV): 7.9 ms
- single-channel conductance ([4]; +60 mV): 100±2.2 pS
- single-channel current amplitude ([4]; +60 mV): 6.02±0.14 pA
- change of Po with increasing concentration ([4]; RTX 0.1 to 20 nM): did not change
- Closed time τ1 ([4]; Vm +60 mV): 0.1±0.008
- Closed time τ2 ([4]; Vm +60 mV): 0.46±0.02
- Closed time τ3 ([4]; Vm +60 mV): 8.7±3.9
- Open time τ1 ([4]; Vm +60 mV): 1.6 ± 1.2 ms
- Open time τ2 ([4]; Vm +60 mV): 6.58 ± 0.56 ms
- Open time τ3 ([4]; Vm +60 mV): 12 ± 1 ms
- Po (single-channel open probability) ([4]; Vm +60 mV): 0.98±0.02
- Closed time τ1 ([4]; Vm −60 mV): 0.05±0.007
- Closed time τ2 ([4]; Vm −60 mV): 0.12±0.005
- Closed time τ3 ([4]; Vm −60 mV): 1.1±0.26
- Open time τ1 ([4]; Vm −60 mV): 0.46 ± 0.1 ms
- Open time τ2 ([4]; Vm −60 mV): 5.57 ± 2.4 ms
- Open time τ3 ([4]; Vm −60 mV): 10.2 ± 1.8 ms
- Po (single-channel open probability) ([4]; Vm −60 mV): 0.94±0.02
- slope conductance, outward limb / positive potentials ([4]; between 0 and +100 mV): 126 pS
- slope conductance, inward limb / negative potentials [4]: ~30 pS
- Po of RTX-induced currents ([4]; cell-attached as well as outside-out patches, negative and positive potentials): ~0.9
- reversal potential of single-channel currents ([4]; recorded −100 to +100 mV): −2.9 mV
- concentration that could maximally activate the receptor ([4]; single-channel recording): 0.1 to 0.2 nM
- mean open time ([4]; −60 mV): 7.5 ms
- single-channel conductance ([4]; −60 mV): 38.3±3.5 pS
- single-channel current amplitude ([4]; −60 mV): 2.3±0.21 pA
- Ca2+ uptake potency (half-maximal concentration) [5]: 0.001 µM
- nocifensive behavior to intraplantar injection of capsaicin [6]: dramatic decrease; also recorded: significantly reduced
- paw withdrawal latency (PWL) to radiant heat [6]: no change; also recorded: not affected
- duration of guarding ([6]; intraplantar capsaicin): decreased significantly
- number of guarding ([6]; intraplantar capsaicin): decreased significantly

SMILES: COc1cc(CNC(=O)CCCC/C=C/C(C)C)ccc1O [capsaicin]
- maximal Po ([7]; +60 mV): 0.4±0.08
- maximal Po ([7]; −60 mV): 0.8±0.04
- mean open time ([4]; +60 mV): 3.8 ms
- single-channel conductance ([4]; +60 mV): 95±0.1 pS
- single-channel current amplitude ([4]; +60 mV): 5.67±0.06 pA
- Closed time τ4 ([4]; Vm +60 mV): 70.84±47
- Open time τ4 ([4]; Vm +60 mV): 14.7±2.6
- Closed time τ4 ([4]; Vm +60 mV, listed as CAP): 70.84 ± 47
- Open time τ4 ([4]; Vm +60 mV, listed as CAP): 14.7 ± 2.6
- Closed time τ1 ([4]; Vm +60 mV): 0.06±0.02
- Closed time τ2 ([4]; Vm +60 mV): 0.67±0.39
- Closed time τ3 ([4]; Vm +60 mV): 1.66±0.39
- Open time τ1 ([4]; Vm +60 mV): 0.14 ± 0.04 ms
- Open time τ2 ([4]; Vm +60 mV): 0.7 ± 0.13 ms
- Open time τ3 ([4]; Vm +60 mV): 3.83 ± 0.62 ms
- Closed time τ1 ([4]; Vm +60 mV, listed as CAP): 0.06 ± 0.02
- Closed time τ2 ([4]; Vm +60 mV, listed as CAP): 0.67 ± 0.39
- Closed time τ3 ([4]; Vm +60 mV, listed as CAP): 1.66 ± 0.39
- Open time τ1 ([4]; Vm +60 mV, listed as CAP): 0.14 ± 0.04 ms
- Open time τ2 ([4]; Vm +60 mV, listed as CAP): 0.7 ± 0.13 ms
- Open time τ3 ([4]; Vm +60 mV, listed as CAP): 3.83 ± 0.62 ms
- Po (single-channel open probability) ([4]; Vm +60 mV): 0.53±0.04
- Po (single-channel open probability) ([4]; Vm +60 mV, listed as CAP): 0.53 ± 0.04
- Closed time τ4 ([4]; Vm −60 mV): 30.8±12.4
- Closed time τ4 ([4]; Vm −60 mV, listed as CAP): 30.8 ± 12.4
- Closed time τ1 ([4]; Vm −60 mV): 0.13±0.02
- Closed time τ2 ([4]; Vm −60 mV): 0.79±0.12
- Closed time τ3 ([4]; Vm −60 mV): 3.47±0.59
- Open time τ1 ([4]; Vm −60 mV): 0.11 ± 0.01 ms
- Open time τ2 ([4]; Vm −60 mV): 0.76 ± 0.18 ms
- Open time τ3 ([4]; Vm −60 mV): 2.61 ± 0.84 ms
- Closed time τ1 ([4]; Vm −60 mV, listed as CAP): 0.13 ± 0.02
- Closed time τ2 ([4]; Vm −60 mV, listed as CAP): 0.79 ± 0.12
- Closed time τ3 ([4]; Vm −60 mV, listed as CAP): 3.47 ± 0.59
- Open time τ1 ([4]; Vm −60 mV, listed as CAP): 0.11 ± 0.01 ms
- Open time τ2 ([4]; Vm −60 mV, listed as CAP): 0.76 ± 0.18 ms
- Open time τ3 ([4]; Vm −60 mV, listed as CAP): 2.61 ± 0.84 ms
- Po (single-channel open probability) ([4]; Vm −60 mV): 0.1±0.04
- Po (single-channel open probability) ([4]; Vm −60 mV, listed as CAP): 0.1 ± 0.04
- slope conductance, inward limb / negative potentials [4]: 41 pS
- conductance level at which currents predominantly dwelled ([4]; capsaicin-induced currents): ~95 pS
- mean open time ([4]; −60 mV): 1.27 ms
- single-channel conductance ([4]; −60 mV): 40±1.95 pS
- single-channel current amplitude ([4]; −60 mV): 2.4±0.12 pA
